Here are results for 63 compounds from patent publication US8129425B2, “Small organic molecule regulators of cell proliferation” (Curis, Inc., priority 2000, dated 2012).

The test concerns hedgehog-responsive Gli-Luc reporter-construct. Nature of the test: Gli-Luc hedgehog pathway reporter assay in [10T1/2(s12)] cells. The class given is cell-based, murine. Particulars: Table 1. The method, then:
To measure the hedgehog agonist activity of compounds, we used [10T1/2(s12)] cells containing the hedgehog-responsive Gli-Luc reporter-construct. In each MTP (MicroTiter Plate; 96-well plate), 10,000-20,000 cells were plated per well, in full media (10% FBS). After about 24-48 hr, plates were switched to low-serum media (=0.5%. FBS). Subsequently, a test compound was added at 1-5 μM in the presence or absence of octyl-hedgehog (see below). After another 24 hr, the media from the MTPs was discarded and replaced with luciferase assay-mix, containing lysis-buffer with luciferase substrate. The plates were incubated at RT for about 15-30 min and read in a luminometer.
Plates were incubated for 48 hr before switching to low-serum. Compounds were screened at 1-2 μM in the presence of Hh protein (0.01 μg/ml; EC30=about 30% of max-induced activity).
Plates were incubated for 24 hr before switching to low-serum. Compounds were screened at 5 μM without adding Hh protein.
From Screen A, we identified hits identified in FIGS. 32 and 33. The 1,4-diaminocyclohexane subunit of the compounds of FIG. 32 which include this moiety have the two amino substituents disposed in a trans-relationship, e.g., both substituents equatorial on the cyclohexane subunit. These hits were confirmed in Screen B. The data shown in FIGS. 34a and 34b essentially involved dosing the two compounds in both assays (Gli-Luc & SV-Luc).
The data from the Gli-Luc assay is converted to percent activity where full activity with Hh protein is set at 100% (FIG. 35; Table 1). […] Furthermore, the compounds show a more striking induction in the presence of hedgehog (EC50=0.2-0.3 μM, ECmax=70-90% of max induced activity with Hh protein), indicating a synergy between the compounds and Hh protein, consistent with the compounds serving as agonists for the hedgehog pathway.
In general terms: Reporter assays use an easily measured gene product as a stand-in for the process of interest.
`COc1ccc(CN(C(=O)c2sc3ccccc3c2Cl)C2CCC(O)CC2)cc1-c1ccc(C#N)cc1` (stereo not drawn) [A′]: the EC50 is less than 10 µM.

With `CN[C@H]1CC[C@H](N(Cc2scc(-c3cccnc3)c2C)C(=O)c2sc3ccccc3c2Cl)CC1` [A′′], the EC50 was less than 10 µM. In the case of `CN[C@H]1CC[C@H](N(Cc2cc(-c3ccncc3)cs2)C(=O)c2sc3cccc(F)c3c2Cl)CC1` [A′′′], the EC50 is less than 0.05 µM. Turning to `CN[C@H]1CC[C@H](N(Cc2cccc(-c3nccs3)c2)C(=O)c2sc3ccccc3c2Cl)CC1` [B′′], the EC50 was less than 10 µM. The result for `NC1CCC(N(Cc2cccc(-c3cccnc3)c2)C(=O)c2sc3ccccc3c2Cl)CC1` (stereo not drawn) [Compound C] reads less than 1 µM; that for `COc1ccc(CN(C(=O)c2sc3ccccc3c2C)C2CCC(N)CC2)cc1-c1ccc(C#N)cc1` (stereo not drawn) [Compound E], less than 10 µM.

Consider `CNC1CCC(N(Cc2ccc(C)c(-c3ccc(C#N)cc3)c2)C(=O)c2sc3ccccc3c2Cl)CC1` (stereo not drawn) [Compound S], for which the EC50 was less than 1 µM. As to `COc1ccc(CN(C(=O)c2sc3ccccc3c2Cl)[C@H]2CC[C@H](N)CC2)cc1-c1ccsc1` [C′], the EC50 was less than 10 µM.

As to `CN[C@H]1CC[C@H](N(Cc2cccc(Oc3ccccc3)c2)C(=O)c2sc3ccccc3c2Cl)CC1` [C′′], the EC50 was less than 10 µM. On to `COc1ccc(CN(C(=O)c2sc3ccccc3c2Cl)[C@H]2CC[C@H](N)CC2)cc1-c1cccnc1` [D′], for which the EC50 was less than 10 µM.

As to `CN[C@H]1CC[C@H](N(Cc2cccc(-c3ccc[nH]3)c2)C(=O)c2sc3ccccc3c2Cl)CC1` [D′′], the half-maximal effective concentration (EC50) is less than 10 µM. On to `CN[C@H]1CC[C@H](N(Cc2ccc(OC)c(-c3ccc(C#N)cc3)c2)C(=O)c2sc3ccc(F)c(F)c3c2Cl)CC1` [D′′′], for which the EC50 was less than 0.05 µM.

Regarding `COc1ccc(CN(C(=O)c2sc3ccccc3c2Cl)[C@H]2CC[C@H](N)CC2)cc1-c1ccc(F)cc1` [E′], the EC50 is less than 10 µM. Under `CN[C@H]1CC[C@H](N(Cc2ccc3c(c2)CCO3)C(=O)c2sc3ccccc3c2Cl)CC1` [E′′] stands less than 10 µM.

For the compound `NC1CCC(N(Cc2ccc(-c3nccs3)cc2)C(=O)c2sc3ccccc3c2Cl)CC1` (stereo not drawn) [F], the EC50 was less than 10 µM. The result for `COc1ccc(CN(C(=O)c2sc3ccccc3c2Cl)[C@H]2CC[C@H](N)CC2)cc1-c1ccccc1` [F′] reads less than 10 µM; that for `CN[C@H]1CC[C@H](N(Cc2ccc(OC)c(-c3ccc(C#N)cc3)c2)C(=O)c2sc3c(F)cc(F)cc3c2Cl)CC1` [F′′′], less than 0.05 µM. The result for `COc1ccc(CN(C(=O)c2sc3ccccc3c2Cl)[C@H]2CC[C@H](N(C)C)CC2)cc1-c1ccc(C#N)cc1` [G′] reads less than 10 µM; that for `CN[C@H]1CC[C@H](N(Cc2cc(-c3ccc(C#N)cc3)cs2)C(=O)c2sc3ccccc3c2Cl)CC1` [G′′], less than 0.1 µM; that for `CN[C@H]1CC[C@H](N(Cc2cncc(-c3cccnc3)c2)C(=O)c2sc3ccccc3c2Cl)CC1` [G′′′], less than 5 µM. Under `COc1ccc(CN(C(=O)c2sc3ccccc3c2Cl)C2CCC(N)CC2)cc1-c1ccc(C(C)=O)cc1` (stereo not drawn) [H] stands less than 1 µM. For `COc1ccc(CN(C(=O)c2sc3ccccc3c2Cl)[C@H]2CC[C@H](N)CC2)cc1Br` [H′], the EC50 was greater than 10 µM.

With `CN[C@H]1CC[C@H](N(Cc2cccc(-c3ccc(N(C)C)nc3)c2)C(=O)c2sc3ccccc3c2Cl)CC1` [H′′], the EC50 is less than 0.1 µM. The result for `CN[C@H]1CC[C@H](N(Cc2cccc(-c3ccncc3)c2)C(=O)c2sc3ccccc3c2Cl)CC1` [H′′′] reads less than 0.05 µM; that for `COc1ccc(CN(C(=O)c2sc3ccccc3c2Cl)C2CCC(N)CC2)cc1-c1ncccn1` (stereo not drawn) [I], greater than 10 µM; that for `CN[C@H]1CC[C@H](N(Cc2cccc(-c3ccc(C#N)cc3)c2)C(=O)c2sc3ccccc3c2Cl)CC1` [I′], less than 1 µM. The result for `CN[C@H]1CC[C@H](N(Cc2cc(-c3ccc(S(N)(=O)=O)s3)cs2)C(=O)c2sc3ccccc3c2Cl)CC1` [I′′] reads less than 0.5 µM; that for `NC1CCC(N(Cc2cc(-c3ccc(F)cc3)cs2)C(=O)c2sc3ccccc3c2Cl)CC1` (stereo not drawn) [J], less than 1 µM; that for `CN[C@H]1CC[C@H](N(Cc2ccc(OC)c(-c3ccc(C#N)cc3)c2)C(=O)c2sc3cc(F)ccc3c2Cl)CC1` [J′], less than 1 µM. Under `COc1ccc(-c2cc(CN(C(=O)c3sc4ccccc4c3Cl)C3CCC(N)CC3)ccc2OC)cc1` (stereo not drawn) [K] stands less than 1 µM; under `CN[C@H]1CC[C@H](N(Cc2ccc(OC)c(-c3ccc(C#N)cc3)c2)C(=O)c2sc3ccccc3c2C)CC1` [K′], less than 10 µM; under `CN[C@H]1CC[C@H](N(Cc2cncc(-c3ccc(S(N)(=O)=O)s3)c2)C(=O)c2sc3ccccc3c2Cl)CC1` [K′′′], less than 5 µM. For the compound `CN[C@H]1CC[C@H](N(Cc2cccc(-c3ccc(S(=O)(=O)NC(C)(C)C)s3)c2)C(=O)c2sc3ccccc3c2Cl)CC1` [L′′], the EC50 is less than 1 µM.

Regarding `CN[C@H]1CC[C@H](N(Cc2ccc(OC)c(-c3ccc(C#N)cc3)c2)C(=O)c2sc3sccc3c2Cl)CC1` [L′′′], the EC50 was less than 5 µM.

As for `CNC1CCC(N(Cc2cccc(-c3ccncc3)c2)C(=O)c2sc3ccccc3c2Cl)CC1` (stereo not drawn) [M], the EC50 was less than 1 µM. The result for `CN[C@H]1CC[C@H](N(Cc2cccc(-c3ccc(S(=O)(=O)N(C)C)s3)c2)C(=O)c2sc3ccccc3c2Cl)CC1` [M′′] reads less than 1 µM; that for `CN[C@H]1CC[C@H](N(Cc2ccnc(-c3ccc(C#N)cc3)c2)C(=O)c2sc3ccccc3c2Cl)CC1` [M′′′], less than 0.5 µM; that for `CNC1CCC(N(Cc2cccc(-c3ccc(C)nc3)c2)C(=O)c2sc3ccccc3c2Cl)CC1` (stereo not drawn) [N], less than 1 µM. Under `CN[C@H]1CC[C@H](N(Cc2cccc(-c3cccnc3)n2)C(=O)c2sc3ccccc3c2Cl)CC1` [N′′] stands less than 1 µM; under `CN[C@H]1CC[C@H](N(Cc2ccnc(-c3ccc(S(N)(=O)=O)s3)c2)C(=O)c2sc3ccccc3c2Cl)CC1` [N′′′], less than 5 µM; under `CN[C@H]1CC[C@H](N(Cc2cccc(-c3ccc(S(=O)(=O)NC(C)=O)s3)c2)C(=O)c2sc3ccccc3c2Cl)CC1` [O′′], less than 1 µM. The result for `CN[C@H]1CC[C@H](N(Cc2ccc(OC)c(-c3ccc(C#N)cc3)c2)C(=O)c2sc3cccc(C)c3c2Cl)CC1` [O′′′] reads less than 1 µM; that for `CNC1CCC(N(Cc2cccc(-c3cnccn3)c2)C(=O)c2sc3ccccc3c2Cl)CC1` (stereo not drawn) [P], less than 1 µM. With `CN[C@H]1CC[C@H](N(Cc2cc(-c3ccco3)cs2)C(=O)c2sc3ccccc3c2Cl)CC1` [P′′], the EC50 was less than 10 µM.

In the case of `CNC1CCC(N(Cc2cccc(-c3ccccn3)c2)C(=O)c2sc3ccccc3c2Cl)CC1` (stereo not drawn) [Q], the EC50 was less than 1 µM. On to `CN[C@H]1CC[C@H](N(Cc2ccnc(-c3ccc(N)nc3)c2)C(=O)c2sc3ccccc3c2Cl)CC1` [Q′′′], for which the EC50 was less than 1 µM.

On to `CN[C@H]1CC[C@H](N(Cc2cccc(-c3ccc(S(=O)(=O)n4c(C)ccc4C)s3)c2)C(=O)c2sc3ccccc3c2Cl)CC1` [R′′], for which the EC50 was less than 1 µM. The result for `CN[C@H]1CC[C@H](N(Cc2ccnc(C(F)(F)F)c2)C(=O)c2sc3ccccc3c2Cl)CC1` [R′′′] reads less than 1 µM; that for `CN[C@H]1CC[C@H](N(Cc2cncc(-c3ccc(C#N)cc3)c2)C(=O)c2sc3ccccc3c2Cl)CC1` [S′′], less than 10 µM.

As for `CN[C@H]1CC[C@H](N(Cc2ccnc(-c3cccnc3)c2)C(=O)c2sc3ccccc3c2Cl)CC1` [S′′′], the EC50 was less than 1 µM. Under `Cc1ccc(-c2cccc(CN(C(=O)c3sc4ccccc4c3Cl)C3CCC(N)CC3)c2)cn1` (stereo not drawn) [T] stands less than 10 µM; under `CN[C@H]1CC[C@H](N(Cc2cc(Cl)nc(Cl)c2)C(=O)c2sc3ccccc3c2Cl)CC1` [T′′′], less than 1 µM; under `CNC1CCC(N(Cc2ccc(OC)c(I)c2)C(=O)c2sc3ccccc3c2Cl)CC1` (stereo not drawn) [U], less than 10 µM. `CN[C@H]1CC[C@H](N(Cc2cccc(-c3nccnc3C)c2)C(=O)c2sc3ccccc3c2Cl)CC1` [U′]: the EC50 is less than 1 µM. Under `CN[C@H]1CC[C@H](N(Cc2ccccn2)C(=O)c2sc3c(F)ccc(F)c3c2Cl)CC1` [U′′′] stands less than 1 µM; under `CN[C@H]1CC[C@H](N(Cc2cccc(-c3ccc(OC)nc3)c2)C(=O)c2sc3ccccc3c2Cl)CC1` [V′], less than 1 µM; under `CN[C@H]1CC[C@H](N(Cc2cc(-c3cccnc3)cs2)C(=O)c2sc3c(F)ccc(F)c3c2Cl)CC1` [V′′], less than 0.005 µM. For `CNC1CCC(N(Cc2cccc(I)c2)C(=O)c2sc3ccccc3c2Cl)CC1` (stereo not drawn) [W], the EC50 is less than 10 µM. For the compound `CN[C@H]1CC[C@H](N(Cc2cccc(N3CCOCC3)c2)C(=O)c2sc3ccccc3c2Cl)CC1` [W′], the EC50 was less than 10 µM.

With `CN[C@H]1CC[C@H](N(Cc2cc(-c3ccncc3)cs2)C(=O)c2sc3c(F)ccc(F)c3c2Cl)CC1` [W′′], the EC50 is less than 0.005 µM. Under `COc1ccc(CN(C(=O)c2sc3ccccc3c2Cl)C2CCC(N)CC2)cc1-c1cccc(C#N)c1` (stereo not drawn) [X] stands less than 10 µM; under `CN[C@H]1CC[C@H](N(Cc2cccc(Nc3ccccn3)c2)C(=O)c2sc3ccccc3c2Cl)CC1` [X′], less than 10 µM; under `COc1ccc(CN(C(=O)c2sc3ccccc3c2Cl)C2CCC(N)CC2)cc1-c1cccnc1` (stereo not drawn) [Y], less than 10 µM.

For orientation: EC50 means the concentration giving half of the maximal effect.
